Experimental data published in US9458508B2, “Methods and compositions for the diagnosis and treatment of cancer resistant to anaplastic lymphoma kinase (ALK) kinase inhibitors” (St. Jude Children's Research Hospital, priority 2010, dated 2016).

Tested on: parental BaF3 cells
Test: cells
Settings: Mus musculus, BaF3, 72 h
Procedure: Parental BaF3 cells (“BaF3”) were also tested as a normal, non-ALK-dependent cell control.

C[C@@H](Oc1cc(-c2cnn(C3CCNCC3)c2)cnc1N)c1c(Cl)ccc(F)c1Cl [PF-02341066]
IC50: 1.46 µM
